In ChEMBL document CHEMBL4725249, “Quinazoline Based HSP90 Inhibitors: Synthesis, Modeling Study and ADME Calculations Towards Breast Cancer Targeting” (Bioorg Med Chem Lett, 2020):
pIC50: −log10 of the molar value.

Key:
HeLa = assay: Antiproliferative activity against human HeLa cells assessed as reduction in cell viability after 48 hrs by MTT assay; type: functional, cell-based
HCT-116 = assay: cells; details: Homo sapiens, HCT-116, 48 h
Description: Antiproliferative activity against human HCT116 cells assessed as reduction in cell viability after 48 hrs by MTT assay

MCF7 [1] = assay: Antiproliferative activity against human MCF7 cells assessed as reduction in cell viability after 48 hrs by MTT assay; type: functional, cell-based; details: MCF7, 48 h
WI-38 = assay: cells; details: Homo sapiens, WI-38, 48 h
Description: Cytotoxicity against human WI-38 cells assessed as reduction in cell viability after 48 hrs by MTT assay

Heat shock protein HSP90 = Heat shock protein HSP90 (Homo sapiens, UniProt P07900+P08238); assay: Inhibition of HSP90 ATPase activity (unknown origin); type: protein assay
MCF7 [2] = assay: Induction of cell cycle arrest in human MCF7 cells assessed as cell accumulation at S phase at 2 uM after 24 hrs by PI-staining based flow cytometry (reference value: 35.44%); type: functional
MCF7 [3] = assay: Induction of cell cycle arrest in human MCF7 cells assessed as debris content at 2 uM after 24 hrs by PI-staining based flow cytometry (reference value: 2.09%); type: functional
MCF7 [4] = assay: Induction of cell cycle arrest in human MCF7 cells assessed as cell accumulation at G0/G1 phase at 2 uM after 24 hrs by PI-staining based flow cytometry (reference value: 53.72%); type: functional
MCF7 [5] = assay: Induction of cell cycle arrest in human MCF7 cells assessed as cell aggregates at 2 uM after 24 hrs by PI-staining based flow cytometry (reference value: 2.28%); type: functional
MCF7 [6] = assay: Induction of cell cycle arrest in human MCF7 cells assessed as cell accumulation at G2/M phase at 2 uM after 24 hrs by PI-staining based flow cytometry (reference value: 10.84%); type: functional
MCF7 [7] = assay: Induction of apoptosis in human MCF7 cells assessed as necrotic cells at 2 uM after 24 hrs by Annexin V-FITC/propidium iodide staining based flow cytometric analysis (reference value: 0.43%); type: functional
MCF7 [8] = assay: Induction of apoptosis in human MCF7 cells assessed as late apoptotic cells at 2 uM after 24 hrs by Annexin V-FITC/propidium iodide staining based flow cytometric analysis (reference value: 0.39%); type: functional
MCF7 [9] = assay: Induction of apoptosis in human MCF7 cells assessed as early apoptotic cells at 2 uM after 24 hrs by Annexin V-FITC/propidium iodide staining based flow cytometric analysis (reference value: 0.82%); type: functional
MCF7 [10] = assay: Induction of cell cycle arrest in human MCF7 cells assessed as cell accumulation at Pre-G1 phase at 2 uM after 24 hrs by PI-staining based flow cytometry (reference value: 1.64%); type: functional

O=c1c2ccccc2nc(SCCCCl)n1-c1ccccc1 gave a pIC50 (HeLa) of 4.78, a pIC50 (HCT-116) of 4.63 and a pIC50 (MCF7 [1]) of 4.90. The pIC50 (WI-38) was 4.44.
Molecule CCOc1ccccc1N1CCN(C(=S)SCCCSc2nc3ccccc3c(=O)n2-c2ccccc2)CC1 has a pIC50 (HeLa) of 4.69, an IC50 (Heat shock protein HSP90) of 3.41 µM and a pIC50 (HCT-116) of 4.74. The pIC50 (MCF7 [1]) was 5.02 and the pIC50 (WI-38) was 4.48.
Molecule O=c1c2ccccc2nc(SCCCSC(=S)N2CCN(C3CCCCC3)CC2)n1-c1ccccc1 has a pIC50 (HeLa) of 4.19, a pIC50 (HCT-116) of 4.13 and a pIC50 (MCF7 [1]) of 4.34. The pIC50 (WI-38) was less than 4.00.
In the case of O=c1c2ccccc2nc(SCCCSC(=S)N2CCCCC2)n1-c1ccccc1, the pIC50 (HeLa) was 4.30, the pIC50 (HCT-116) was 4.20 and the pIC50 (MCF7 [1]) was 4.41. It also gave a pIC50 (WI-38) of less than 4.00.
Molecule CC(C)(C)OC(=O)N1CCN(C(=O)CSc2nc3ccccc3c(=O)n2-c2ccccc2)CC1 has a pIC50 (HeLa) of 4.46, a pIC50 (HCT-116) of 4.32 and a pIC50 (MCF7 [1]) of 4.59. It also gave a pIC50 (WI-38) of 4.20.
For O=C(CSc1nc2ccccc2c(=O)n1-c1ccccc1)N1CCN(C2CCCCC2)CC1, the pIC50 (HeLa) was 4.27, the pIC50 (HCT-116) was 4.22 and the pIC50 (MCF7 [1]) was 4.44. The pIC50 (WI-38) was 4.11.
With O=C(CSc1nc2ccccc2c(=O)n1-c1ccccc1)N1CCOCC1 the pIC50 (HeLa) was 4.74, the IC50 (Heat shock protein HSP90) was 3.21 µM and the pIC50 (HCT-116) was 4.70. It also gave a pIC50 (MCF7 [1]) of 4.93 and a pIC50 (WI-38) of 4.80.
For O=C(CSc1nc2ccccc2c(=O)n1-c1ccccc1)N1CCN(c2ncccn2)CC1, the pIC50 (HeLa) was 4.11, the pIC50 (HCT-116) was 4.10 and the pIC50 (MCF7 [1]) was 4.32. For the same molecule, the pIC50 (WI-38) was 4.02.
O=C(CSc1nc2ccccc2c(=O)n1-c1ccccc1)N1CCCCC1 was tested, and the pIC50 (HeLa) was 4.65, the pIC50 (HCT-116) was 4.60 and the pIC50 (MCF7 [1]) was 4.86. For the same molecule, the pIC50 (WI-38) was 4.19.
Work on CC(=O)N1CCN(C(=S)SCCCSc2nc3ccccc3c(=O)n2-c2ccccc2)CC1 yielded a pIC50 (HeLa) of 4.26, a pIC50 (HCT-116) of 4.43 and a pIC50 (MCF7 [1]) of 4.65. The pIC50 (WI-38) was less than 4.00.
Molecule C=CCN1CCN(C(=O)CSc2nc3ccccc3c(=O)n2-c2ccccc2)CC1 has an Activity (MCF7 [2]) of 29.52%, a pIC50 (HeLa) of 4.87 and an Activity (MCF7 [3]) of 2.63%. For the same molecule, the IC50 (Heat shock protein HSP90) was 1.58 µM, the Activity (MCF7 [4]) was 31.59% and the Activity (MCF7 [5]) was 2.21%. For the same molecule, the Activity (MCF7 [6]) was 38.89%, the pIC50 (HCT-116) was 4.81 and the Activity (MCF7 [7]) was 2.31%. For the same molecule, the pIC50 (MCF7 [1]) was 5.07, the pIC50 (WI-38) was 4.91 and the Activity (MCF7 [8]) was 15.17%. The Activity (MCF7 [9]) was 4.94% and the Activity (MCF7 [10]) was 22.42%.
CC(=O)N1CCN(C(=O)CSc2nc3ccccc3c(=O)n2-c2ccccc2)CC1 was tested, and the pIC50 (HeLa) was 4.92, the IC50 (Heat shock protein HSP90) was 14.36 µM and the pIC50 (HCT-116) was 4.99. For the same molecule, the pIC50 (MCF7 [1]) was 5.13 and the pIC50 (WI-38) was 4.80.
In the case of C=CCN1CCN(C(=S)SCCCSc2nc3ccccc3c(=O)n2-c2ccccc2)CC1, the pIC50 (HeLa) was 4.54, the pIC50 (HCT-116) was 4.49 and the pIC50 (MCF7 [1]) was 4.75. It also gave a pIC50 (WI-38) of 4.08.
Work on O=c1c2ccccc2nc(SCCCSC(=S)N2CCN(c3ncccn3)CC2)n1-c1ccccc1 yielded a pIC50 (HeLa) of 4.13, a pIC50 (HCT-116) of 4.10 and a pIC50 (MCF7 [1]) of 4.31. For the same molecule, the pIC50 (WI-38) was less than 4.00.
CCN1CCN(C(=S)SCCCSc2nc3ccccc3c(=O)n2-c2ccccc2)CC1 was tested, and the pIC50 (HeLa) was 4.10, the pIC50 (HCT-116) was 4.06 and the pIC50 (MCF7 [1]) was 4.19. For the same molecule, the pIC50 (WI-38) was less than 4.00.
With CN1CCN(C(=S)SCCCSc2nc3ccccc3c(=O)n2-c2ccccc2)CC1 the pIC50 (HeLa) was 4.48, the pIC50 (HCT-116) was 4.48 and the pIC50 (MCF7 [1]) was 4.71. The pIC50 (WI-38) was 4.15.
O=c1c2ccccc2nc(SCCCSC(=S)N2CCN(c3ccccc3)CC2)n1-c1ccccc1 showed a pIC50 (HeLa) of 4.58, a pIC50 (HCT-116) of 4.56 and a pIC50 (MCF7 [1]) of 4.81. The pIC50 (WI-38) was 4.53.
Work on CCN1CCN(C(=O)CSc2nc3ccccc3c(=O)n2-c2ccccc2)CC1 yielded a pIC50 (HeLa) of 4.43, a pIC50 (HCT-116) of 4.35 and a pIC50 (MCF7 [1]) of 4.62. The pIC50 (WI-38) was 4.09.
